Earlier results in publication PMC7751758, “Repurposing Sigma-1 Receptor Ligands for COVID-19 Therapy?” (Frontiers in Pharmacology, 2020).
pIC50, pKi: −log10 of the molar value. Values joined by “and” are separate entries in the source; they are usually repeats but may differ in a detail not shown here. Equal entries are not always repeated. “Also recorded” adds a separate entry of the source.

Assays:
Sigma-1 receptor = conditions: for pIC50: read-out: Sigma-1 receptor affinity IC50; for pKi: read-out: Sigma-1 receptor affinity Ki
[1] = test system: HCV infection of human hepatocarcinoma Huh-7 cells; conditions: absence of cytotoxicity at low micromolar and submicromolar concentrations; ref Gastaminza et al., 2010
[2] = test system: HCV-induced cytopathic effect on the engineered cell line n4mBid; conditions: leads of the cell protection screen; ref Chockalingam et al., 2010
HCV infection = conditions: without significantly reducing cell biomass; ref Mingorance et al., 2014

Row | Compound | pIC50 (Sigma-1 receptor) | reduction in HCV infection of Huh-7 cells, as compared to the vehicle DMSO control [1] [%] | also measured
1 | CN1CCC(=C2c3ccccc3CC(=O)c3sccc32)CC1 [Ketotifen] | 5.42 | > 85 | –
2 | COc1ccc(CN2CCN(C(c3ccc(F)cc3)c3ccc(F)cc3)CC2)c(OC)c1OC [Lomerizine] | 7.43 | – | Antiviral activity: Virus (EBOV): active
3 | Fc1ccc(-n2cc(CCCCN3CCC4(CC3)OCc3ccccc34)c3ccccc32)cc1 [Siramesine] | 7.77 | – | –
4 | CC(=O)c1ccc2c(c1)N(CCCN1CCC(CCO)CC1)c1ccccc1S2 [Piperacetazine] | 6.08 | – | Antiviral activity: Virus (EBOV): active
5 | OC(c1cc(C(F)(F)F)nc2c(C(F)(F)F)cccc12)C1CCCCN1 (stereo not shown) [Mefloquine] | 5.59 | – | Antiviral activity: Virus (SARS-CoV): in vitro activity; Antiviral activity: Virus (MERS-CoV): in vitro activity
6 | (−)-Butaclamol | 6.74 | – | –
7 | CCN(CC)Cc1cc(Nc2ccnc3cc(Cl)ccc23)ccc1O [Amodiaquine] | 6.45 | – | Antiviral activity: Virus (SARS-CoV): in vitro activity; Antiviral activity: Virus (MERS-CoV): in vitro activity
8 | CC(C)(C)[C@]1(O)CCN2C[C@H]3c4ccccc4CCc4cccc(c43)[C@@H]2C1 [butaclamol] | – | – | alleviation of HCV-induced cytopathic effect (n4mBid cell viability relative to untreated cells) [2]: increase n4mBid cell viability
9 | O=C1NCN(c2ccccc2)C12CCN(CCCC(c1ccc(F)cc1)c1ccc(F)cc1)CC2 [Fluspirilene] | 6.42 and 6.25 | – | Antiviral activity: Virus (SARS-CoV): in vitro activity; pKi (Sigma-1 receptor): 6.82; Antiviral activity: Virus (MERS-CoV): in vitro activity
10 | OCc1cc(C(O)CNCCCCCCOCCCCc2ccccc2)ccc1O (stereo not shown) [Salmeterol] | 6.82 | > 85 | –
11 | CNCCC(Oc1ccc(C(F)(F)F)cc1)c1ccccc1 (stereo not shown) [Fluoxetine] | – | – | reduction of HCV infection (HCV infection): more than one order of magnitude
12 | O=C(c1ccc(OCCN2CCCCC2)cc1)c1c(-c2ccc(O)cc2)sc2cc(O)ccc12 [Raloxifene] | 6.91 | – | reduction of HCV infection (HCV infection): more than one order of magnitude; alleviation of HCV-induced cytopathic effect (n4mBid cell viability relative to untreated cells) [2]: increase n4mBid cell viability; pKi (Sigma-1 receptor): 7.42
13 | Cl.Cl.OCCN1CCN(CCC=C2c3ccccc3Sc3ccc(C(F)(F)F)cc32)CC1 (mixture of isomers) [Flupentixol] | – | – | Antiviral activity: Virus (EBOV): active
14 | C[C@@H]1C[C@@H]([C@H](O)CC2CC(=O)NC(=O)C2)C(=O)[C@@H](C)C1 [Cycloheximide] | 5.99 | – | Antiviral activity: Virus (SARS-CoV): in vitro activity; Antiviral activity: Virus (MERS-CoV): in vitro activity
15 | CN1CCCC(n2nc(Cc3ccc(Cl)cc3)c3ccccc3c2=O)CC1 (stereo not shown) [Azelastine] | 6.56 | > 85 | –
16 | OCCOCCN1CCN(C(c2ccccc2)c2ccc(Cl)cc2)CC1 (stereo not shown) [Hydroxyzine] | 6.47 | – | reduction of HCV infection (HCV infection): more than one order of magnitude; pKi (Sigma-1 receptor): 7.34
17 | CNCCCC1c2ccccc2C=Cc2ccccc21 [Protriptyline] | 6.51 | – | alleviation of HCV-induced cytopathic effect (n4mBid cell viability relative to untreated cells) [2]: increase n4mBid cell viability
18 | CN(CCCN1c2ccccc2CCc2ccccc21)CC(=O)c1ccc(Cl)cc1 [Lofepramine] | – | > 85 | Sigma-1 receptor affinity, inhibition (Sigma-1 receptor; at 10 µM): 100% inh. at 10 µM; pKi (Sigma-1 receptor): 5.60
19 | C[C@@H]1CN(CCCn2c3ccccc3c3ccccc32)C[C@H](C)N1 [Rimcazole, 9-[3-(cis-3,5-Dimethyl-1-piperazinyl)-propyl]carbazole] | […] | > 85 | pKi (Sigma-1 receptor): […]
20 | CNC1CC(c2ccc(Cl)c(Cl)c2)c2ccccc21 (stereo not shown) [Indatraline] | 6.13 | > 85 | –
21 | COc1ccccc1OCCNCC(O)COc1cccc2[nH]c3ccccc3c12 (stereo not shown) [Carvedilol] | 5.80 | > 85 | –
22 | CCN(CC)CCCC(C)Nc1c2ccc(Cl)cc2nc2ccc(OC)cc12 (stereo not shown) [Quinacrine] | 6.02 | – | Antiviral activity: Virus (EBOV): active
23 | (±)-Butaclamol | 6.46 | – | –
24 | CC/C(=C(\c1ccccc1)c1ccc(OCCN(C)C)cc1)c1ccccc1 [Tamoxifen] | – | – | reduction of HCV infection (HCV infection): more than one order of magnitude; Antiviral activity: Virus (SARS-CoV): in vitro activity; also recorded: SARS-CoV SARS-CoV-2; Antiviral activity: Virus (MERS-CoV): in vitro activity
25 | CN1CCN(c2nc3cc(C(F)(F)F)ccc3n3cccc23)CC1.O=C(O)/C=C\C(=O)O.O=C(O)/C=C\C(=O)O [CGS 12066B] | 5.93 | > 85 | –
